From patent US4123530A, “N-cyclohexyl-piperazino acetamides and propionamides” (Camillo Corvi S.p.A., priority 1976, dated 1978)

What was measured:
acute toxicity, mice = settings: mouse, in vivo, read-out: DL/50 (the source's name)
acute toxicity, rats = settings: rat, in vivo, po, os, read-out: DL/50 (the source's name)
Wistar rats = experiment: Sub-chronic toxicity (30 days per ora); assay type: in vivo; settings: oral 400 mg/kg
Experimental: (2) Sub-chronic toxicity (C/63)
Eighty Wistar rats were divided in 4 groups of twenty each (10 males and 10 fewales). Compound (C/63) was given per ora to three groups of animals for a period of 30 days in quantities of 100, 200 and 400 mg/kg.

[1] = tested on: Ulcer due to activity prevention; experiment: Anti-ulcer activity: Ulcer due to activity prevention (Rossi & Coll.); assay type: in vivo
Reserpine ulcer = experiment: Anti-ulcer activity: Reserpine ulcer with rats; assay type: in vivo
[2] = tested on: Phenylbutazone-histamine ulcer; experiment: Anti-ulcer activity: Phenylbutazone-histamine ulcer; assay type: in vivo
Withdrawal ulcer = experiment: Anti-ulcer activity: Withdrawal ulcer; assay type: in vivo; settings: 100 mg/kg os
Shay ulcer = experiment: Anti-ulcer activity: Shay ulcer; assay type: in vivo; settings: 300 mg/kg os
Guinea-pig Ileus = experiment: spasmolytic activity in vitro, Guinea-pig Ileus
intestine peristaltis = experiment: spasmolytic activity in vivo: activity on intestine peristaltis (mouse)
Excerpt: Activity of C/63 on intestine peristaltis (mouse)

Row | SMILES | LD50 (acute toxicity, mice; iv) [mg/kg] | LD50 (acute toxicity, mice; po, os) [mg/kg] | LD50 (acute toxicity, rats) [mg/kg] | appearance of damages due to toxicity (bloodcrasis, biochemical blood analysis, weight, histological examination of the organs) (Wistar rats) | Inhibition % ([1]; 50 mg/kg os) [%] | Inhibition % ([1]; 100 mg/kg os) [%] | Inhibition % ([1]; 200 mg/kg os) [%] | Inhibition % (Reserpine ulcer; 300 mg/kg os) [%] | Inhibition % ([2]; 25 mg/kg os) [%] | Inhibition % ([2]; 50 mg/kg os) [%] | Inhibition % ([2]; 100 mg/kg os) [%] | Inhibition % (Withdrawal ulcer) [%] | Inhibition % (Shay ulcer) [%] | DE50 against Ach. (Guinea-pig Ileus; against Ach.) [µg/mL] | DE50 against BaCl2 (Guinea-pig Ileus; against BaCl2) [µg/mL] | DE50 against histamine (Guinea-pig Ileus; against histamine) [µg/mL] | Inhibition % (intestine peristaltis; 100 mg/kg os) [%] | Inhibition % (intestine peristaltis; 200 mg/kg os) [%] | Inhibition % (Reserpine ulcer; 100 mg/kg os) [%] | anticholinergic activity (anticholinergic activity)
1 | O=C(CN1CCNCC1)NC1CCCCC1 [C/63, N-[1-piperazinylacetyl]-cyclohexylamine] | 271 | 1970 | 3900 | no appearance of damages due to the toxicity of the drug | 19 | 32 | 45 | 25 | 10 | 43 | 72 | 33 | 72 | > 40 | > 40 | > 40 | 6 | 23 |  | 
2 | CC1CCC(NC(=O)CN2CCNCC2)CC1 (stereo not drawn) [C/82, N-(1-piperazinylacetyl)-4-methyl-cyclohexylamine] |  | 1790 |  |  |  | 30 | 35 | 70 |  | 33 | 60 | 30 |  |  |  |  |  |  | 47 | no anticholinergic activity
